In patent publication US9260408B2, “Dihydroquinoline-2-one derivatives” (Hoffmann-La Roche Inc., priority 2011, dated 2016):
Counter-ions that a name gives are not always drawn.

Assays:
human CYP11B1 = molecular target: T1, human CYP11B1 (Homo sapiens, UniProt P15538); assay: G-402 cellular enzyme assay, human CYP11B1 (cortisol release, HTRF); format: cell-based; conditions: G-402 cells expressing human CYP11B1; 1 μM Deoxycortisol
T1 construct: expressed in transfected cells
T1 sequence (P15538 25-503): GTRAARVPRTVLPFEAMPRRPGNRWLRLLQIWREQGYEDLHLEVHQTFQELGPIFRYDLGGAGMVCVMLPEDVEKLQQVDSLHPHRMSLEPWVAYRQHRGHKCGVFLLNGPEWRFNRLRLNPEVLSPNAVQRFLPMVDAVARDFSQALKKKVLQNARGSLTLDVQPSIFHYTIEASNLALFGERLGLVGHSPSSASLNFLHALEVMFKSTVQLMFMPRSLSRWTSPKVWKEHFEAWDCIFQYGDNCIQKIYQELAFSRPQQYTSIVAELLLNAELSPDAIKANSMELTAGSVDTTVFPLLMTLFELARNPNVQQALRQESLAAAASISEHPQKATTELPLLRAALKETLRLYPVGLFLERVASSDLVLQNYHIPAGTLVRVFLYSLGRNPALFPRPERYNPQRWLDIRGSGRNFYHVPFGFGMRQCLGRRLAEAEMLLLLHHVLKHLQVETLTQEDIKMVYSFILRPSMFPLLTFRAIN
Source text: (§1) Herein we identified the use of the G-402 cell line as a host cell to ectopically express (transiently or stably) enzymes of the CYP11 family. Specifically we developed stable G-402 cells expressing ectopically human CYP11B1, human CYP11B2, human CYP11A1, cynomolgus CYP11B1 or cynomolgus CYP11B2 enzyme activity. Importantly the identified cell line G-402 expresses co-factors (adrenodoxin and adrenodoxin reductase) important for the activity of the CYP11 family and no relevant enzyme activity of the CYP11 family (in comparison to H295R cells) was detected in these cells. Therefore the G-402 cell line is uniquely suited as a host cell for the ectopic expression of enzymes from the CYP11 family.
(§2) G-402 cells can be obtained from ATCC(CRL-1440) and were originally derived from a renal leiomyoblastoma.
(§3) The expression plasmids contains the ORF for either human/cyno CYP11B1 or CYP11B2 under the control of a suitable promoter (CMV-promoter) and a suitable resistance marker (neomycin). Using standard techniques the expression plasmid is transfected into G-402 cells and these cells are then selected for expressing the given resistance markers. Individual cell-clones are then selected and assessed for displaying the desired enzymatic activity using 11-Deoxycorticosterone (Cyp11B2) or 11-Deoxycortisol (Cyp11B1) as a substrate.
(§4) G-402 cells expressing CYP11 constructs were established as described above and maintained in McCoy's 5a Medium Modified, ATCC Catalog No. 30-2007 containing 10% FCS and 400 μg/ml G418 (Geneticin) at 37° C. under an atmosphere of 5% CO2/95% air. Cellular enzyme assays were performed in DMEM/F12 medium containing 2.5% charcoal treated FCS and appropriate concentration of substrate (0.3-10 uM 11-Deoxycorticosterone, 11-Deoxycortisol or Corticosterone). For assaying enzymatic activity, cells were plated onto 96 well plates and incubated for 16 h. An aliquot of the supernatant is then transferred and analyzed for the concentration of the expected product (Aldosterone for CYP11B2; Cortisol for CYP11B1). The concentrations of these steroids can be determined using HTRF assays from CisBio analyzing either Aldosterone or Cortisol.
(§5) Inhibition of the release of produced steroids can be used as a measure of the respective enzyme inhibition by test compounds added during the cellular enzyme assay. The dose dependent inhibition of enzymatic activity by a compound is calculated by means of plotting added inhibitor concentrations (x-axes) vs. measured steroid/product level (y-axes). The inhibition is then calculated by fitting the following 4-parameter sigmoidal function (Morgan-Mercer-Flodin (MMF) model) to the raw data points using the least squares method:
(§6) [formula] wherein, A is the maximum y value, B is the EC50 factor determined using XLFit, C is the minimum y value and D is the slope value.
(§7) EC50 values for compounds claimed herein were tested with the G402-based assay system described. Cyp11B2 enzyme activity was tested in presence of 1 μM Deoxycorticosterone and variable amounts of inhibitors; Cyp11B1 enzyme activity was tested in presence of 1 μM Deoxycortisol and variable amounts of inhibitors.

human CYP11B2 = molecular target: T2, human CYP11B2 (Homo sapiens, UniProt P19099); assay: G-402 cellular enzyme assay, human CYP11B2 (aldosterone release, HTRF); format: cell-based; conditions: G-402 cells expressing human CYP11B2; 1 μM Deoxycorticosterone
T2 construct: expressed in transfected cells
T2 sequence (P19099 25-503): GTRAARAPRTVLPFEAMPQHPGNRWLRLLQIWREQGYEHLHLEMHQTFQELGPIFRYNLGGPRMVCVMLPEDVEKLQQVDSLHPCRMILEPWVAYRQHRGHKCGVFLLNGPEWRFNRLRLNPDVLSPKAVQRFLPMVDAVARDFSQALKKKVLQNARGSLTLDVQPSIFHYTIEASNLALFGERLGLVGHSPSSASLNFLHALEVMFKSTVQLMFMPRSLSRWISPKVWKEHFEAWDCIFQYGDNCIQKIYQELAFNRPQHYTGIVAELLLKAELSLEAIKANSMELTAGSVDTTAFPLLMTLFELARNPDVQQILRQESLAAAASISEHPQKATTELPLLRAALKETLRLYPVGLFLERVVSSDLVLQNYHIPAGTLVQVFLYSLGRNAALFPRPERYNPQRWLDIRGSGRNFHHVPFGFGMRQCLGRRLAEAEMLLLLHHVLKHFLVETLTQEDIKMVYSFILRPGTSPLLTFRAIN
Source text: as §1, §2, §3, §4, §5, §6, §7

CN(Cc1cncc(-c2cc(Cl)c3c(c2)CCC(=O)N3)c1)C(=O)c1ncccc1Cl [Example 216, 3-Chloro-pyridine-2-carboxylic acid [5-(8-chloro-2-oxo-1,2,3,4-tetrahydro-quinolin-6-yl)-pyridin-3-ylmethyl]-methyl-amide]
EC50 (human CYP11B1): 879 nM
EC50 (human CYP11B2): 42 nM

CN1C(=O)CCc2cc(-c3cncc(C(C)(C)N)c3)ccc21 [Example 72, 6-[5-(1-Amino-1-methyl-ethyl)-pyridin-3-yl]-1-methyl-3,4-dihydro-1H-quinolin-2-one]
EC50 (human CYP11B1): 101 nM
EC50 (human CYP11B2): 7 nM

CCC(=O)N1CC(Oc2cncc(-c3ccc4c(c3)CCC(=O)N4C)c2)C1 [Example 129]
EC50 (human CYP11B1): 613 nM
EC50 (human CYP11B2): 30 nM

CN1C(=O)CCc2cc(-c3cncc(CNC(=O)c4ncccc4Cl)c3)c(F)cc21 [Example 131, 3-Chloro-pyridine-2-carboxylic acid [5-(7-fluoro-1-methyl-2-oxo-1,2,3,4-tetrahydro-quinolin-6-yl)-pyridin-3-ylmethyl]-amide]
EC50 (human CYP11B1): 440 nM
EC50 (human CYP11B2): 3 nM

CC(=O)OCC(=O)Nc1cncc(-c2ccc3c(c2)CCC(=O)N3C)c1 [Example 2, Acetic acid [5-(1-methyl-2-oxo-1,2,3,4-tetrahydro-quinolin-6-yl)-pyridin-3-ylcarbamoyl]-methyl ester]
EC50 (human CYP11B1): > 3000 nM
EC50 (human CYP11B2): 430 nM

CCS(=O)(=O)N(C)C(C)c1cncc(-c2ccc3c(c2)CCC(=O)N3C)c1 (racemic) [Example 186, (rac)-Ethanesulfonic acid methyl-{1-[5-(1-methyl-2-oxo-1,2,3,4-tetrahydro-quinolin-6-yl)-pyridin-3-yl]-ethyl}-amide]
EC50 (human CYP11B1): 199 nM
EC50 (human CYP11B2): 11 nM

CCS(=O)(=O)NCc1cncc(-c2ccc3c(c2F)CCC(=O)N3C)c1 [Example 210, Ethanesulfonic acid [5-(5-fluoro-1-methyl-2-oxo-1,2,3,4-tetrahydro-quinolin-6-yl)-pyridin-3-ylmethyl]-amide]
EC50 (human CYP11B1): 1340 nM
EC50 (human CYP11B2): 30 nM

CN1C(=O)CCc2cc(-c3cncc(O[C@@H]4CCNC4)c3)ccc21 [Example 68, 1-Methyl-6-[5-((R)-pyrrolidin-3-yloxy)-pyridin-3-yl]-3,4-dihydro-1H-quinolin-2-one hydrochloride]
EC50 (human CYP11B1): 33700 nM
EC50 (human CYP11B2): 350 nM

CCS(=O)(=O)N1CC[C@@H](Oc2cncc(-c3ccc4c(c3)CCC(=O)N4C)c2)C1 [Example 169, 6-[5-((R)-1-Ethanesulfonyl-pyrrolidin-3-yloxy)-pyridin-3-yl]-1-methyl-3,4-dihydro-1H-quinolin-2-one]
EC50 (human CYP11B1): 850 nM
EC50 (human CYP11B2): 35 nM

CN1C(=O)CCc2cc(-c3cncc(CN4C(=O)CC[C@H]4CO)c3)ccc21 [Example 8, 6-[5-((S)-2-Hydroxymethyl-5-oxo-pyrrolidin-1-ylmethyl)-pyridin-3-yl]-1-methyl-3,4-dihydro-1H-quinolin-2-one]
EC50 (human CYP11B1): 2330 nM
EC50 (human CYP11B2): 49 nM

CCC(=O)NCc1cncc(-c2ccc3c(c2)CCC(=O)N3C)c1Cl [Example 265, N-[4-Chloro-5-(1-methyl-2-oxo-1,2,3,4-tetrahydro-quinolin-6-yl)-pyridin-3-ylmethyl]-propionamide]
EC50 (human CYP11B1): 623 nM
EC50 (human CYP11B2): 9 nM

CN1C(=O)CCc2cc(-c3cncc(CNC(=O)c4coc(C(F)(F)F)c4)c3)ccc21 [Example 84]
EC50 (human CYP11B1): 526 nM
EC50 (human CYP11B2): 34 nM

Cc1noc(C)c1C(=O)NCc1cncc(-c2cc3c(cc2F)N(C)C(=O)CC3)c1C [Example 246, 3,5-Dimethyl-isoxazole-4-carboxylic acid [5-(7-fluoro-1-methyl-2-oxo-1,2,3,4-tetrahydro-quinolin-6-yl)-4-methyl-pyridin-3-ylmethyl]-amide]
EC50 (human CYP11B1): 4720 nM
EC50 (human CYP11B2): 13 nM

CCC(=O)N1CCC[C@H]1COc1cncc(-c2ccc3c(c2)CCC(=O)N3C)c1 [Example 106]
EC50 (human CYP11B1): 2680 nM
EC50 (human CYP11B2): 20 nM
